US20150182492A1, “Ulcer Treatment” (United Arab Emirates University, priority 2013, published 2015)

Columns and labels:
[1] = system: gastric ulcer formation in rat stomachs; test: Antiulcer activity, acidified ethanol-induced gastric ulcer; type: in vivo, rat (male Wistar); parameters: key to Ulcer Index, Mean: total length of hemorrhagic lesions (mm) = ulcer index; conditions: for Ulcer Index, Mean: 30 min before acidified ethanol, control 95.00; for Ulcer index compared to the control (in words): acidified ethanol model, rats
Description: (§1) Male Wistar rats (weighing 200-225 g) were fasted for 24 hours in wire mesh cages to avoid coprophagy. The rats were obtained from the animal facilities of the Faculty of Medicine and Health Sciences of the United Arab Emirates (UAE) University. Materials
Rats were divided into groups of six to seven animals for each experiment. Each group received either neutral pH physiologic saline (1 mL) or water extract of either quercetin, diallyl sulfide or allyl disulfide (1 mg/kg, 10 mg/kg, 50 mg/kg or 100 mg/kg; six rats for each dose) by gastric gavage. Two additional comparison groups received either the proton pump inhibitor Lansoprazole (10 mg/kg) or the H2-receptor antagonist Ranitidine (20 mg/kg). After 30 minutes of the treatment, 1 mL of acidified ethanol (60% ethanol with 150 mM HCl), an ulcerogenic agent, was administered orally to the animals. The animals were sacrificed 1 hour later by increasing the dose of the anaesthesia. The abdomen was incised, and the stomachs removed, cut open along the greater curvature, and rinsed with saline to remove any adherent particles and mucus. The open stomach was spread on a sheet of cork so as to have a clear view of gastric lesions in the gastric mucosa. The total lengths of hemorrhagic lesions, which were approximately 1 mm in length and formed in the glandular portion of the gastric mucosa, were taken as ulcer index. An observer who was unaware of the drug treatments confirmed the ulcer index. The percentage reduction of the ulcer index in the drug-treated groups was calculated from the saline treated groups. The use of 60% ethanol in 150 mM HCl to produce an ulcerogenic effect was based on earlier observation that ethanol 50% and over provided a reproducible model of gastric damage.

[2] = system: histamine stimulated gastric acid secretion from rat stomach; test: Gastric acid secretion measured in vivo (histamine stimulated); parameters: species or system rat (male Wistar); conditions: for Acid output, mean: histamine 2 mg/kg bolus; for Acid output compared to the histamine control (in words): treated orally, then challenged with histamine, FIGS. 1-3
Description: as §1
Groups of six rats were used for the experiment. Rats were initially anesthetized with urethane (1.5 g/kg) intraperitoneally. Following general anesthesia, a laparotomy was immediately performed followed by the insertion of a polyethylene tube at the pyloric end of the stomach. This tube was used to collect exudates from the stomach. An orogastric tube was inserted in the stomach via the esophagus. This tube was used to perfuse the stomach with saline (pH 7) at a constant rate of 7 mL/min at 37° C. Following perfusion, effluent samples were collected and titrated against 0.01 M NaOH every 15 minutes for acid secretion. After basal acid output for 1 hour, either saline, quercetin (50 mg/kg,), or diallyl sulfide (50 mg/kg), or allyl disulfide (10 mg/kg) at neutral pH was given orally and 30 minutes later, histamine (2 mg/kg) was administered as a bolus injection. Acid output was monitored continuously for 2 hours thereafter. The acid output was calculated and expressed as μmol (15 min^−1).

[3] = dose 10 mg/kg by gastric gavage
[4] = dose 50 mg/kg by gastric gavage
[5] = dose 100 mg/kg by gastric gavage

| SMILES | Acid output, mean ([2]; time 0 min, 50 mg/kg oral) | Acid output, mean ([2]; time 30 min, 50 mg/kg oral) | Acid output, mean ([2]; time 45 min, 50 mg/kg oral) | Acid output, mean ([2]; time 60 min, 50 mg/kg oral) | Acid output, mean ([2]; time 75 min, 50 mg/kg oral) | Acid output, mean ([2]; time 90 min, 50 mg/kg oral) | Acid output, mean ([2]; time 105 min, 50 mg/kg oral) | Acid output, mean ([2]; time 120 min, 50 mg/kg oral) | Acid output, mean ([2]; time 135 min, 50 mg/kg oral) | Acid output, mean ([2]; time 150 min, 50 mg/kg oral) | Acid output compared to the histamine control (in words) [2] | Ulcer index compared to the control (in words) [1] | Ulcer Index, Mean ([1]; dose 1 mg/kg by gastric gavage) | Ulcer Index, Mean [1, 3] | Ulcer Index, Mean [1, 4] | Ulcer Index, Mean [1, 5] | further results |
| --- | --- | --- | --- | --- | --- | --- | --- | --- | --- | --- | --- | --- | --- | --- | --- | --- | --- |
| CNC(=C[N+](=O)[O-])NCCSCc1ccc(CN(C)C)o1 [Ranitidine, reference compound] | – | – | – | – | – | – | – | – | – | – | – | – | – | – | – | – | Ulcer Index, Mean ([1]; dose 20 mg/kg): 28.50 |
| O=c1c(O)c(-c2ccc(O)c(O)c2)oc2cc(O)cc(O)c12 [Quercetin] | 1.633 μmol (15 min^−1) | 3.323 μmol (15 min^−1) | 1.299 μmol (15 min^−1) | 5.507 μmol (15 min^−1) | 2.579 μmol (15 min^−1) | 1.84 μmol (15 min^−1) | 1.868 μmol (15 min^−1) | 2.213 μmol (15 min^−1) | 1.927 μmol (15 min^−1) | 1.497 μmol (15 min^−1) | reduced acid output compared to the histamine control | significantly reduced ulcer index compared to the control | 34.00 | 34.00 | 21.83 | 31.17 | – |
| C=CCSCC=C [Allyl sulfide, Diallyl sulfide] | 1.926 μmol (15 min^−1) | 3.328 μmol (15 min^−1) | 2.023 μmol (15 min^−1) | 1.742 μmol (15 min^−1) | 1.901 μmol (15 min^−1) | 1.627 μmol (15 min^−1) | 1.761 μmol (15 min^−1) | 1.883 μmol (15 min^−1) | 2.301 μmol (15 min^−1) | 1.525 μmol (15 min^−1) | reduced acid output compared to the histamine control | significantly reduced ulcer index compared to the control | 114.83 | 72.33 | 5.50 | 13.00 | – |
| Cc1c(OCC(F)(F)F)ccnc1C[S+]([O-])c1nc2ccccc2[nH]1 (centres unmarked) [Lansoprazole, reference compound] | – | – | – | – | – | – | – | – | – | – | – | – | – | 13.00 | – | – | – |
| C=CCSSCC=C [Allyl disulfide] | – | – | – | – | – | – | – | – | – | – | reduced acid output compared to the histamine control | significantly reduced ulcer index compared to the control | 11.67 | 0.00 | 8.33 | 11.00 | Acid output, mean ([2]; time 0 min, 10 mg/kg oral): 2.154 μmol (15 min^−1); Acid output, mean ([2]; time 30 min, 10 mg/kg oral): 3.514 μmol (15 min^−1); Acid output, mean ([2]; time 45 min, 10 mg/kg oral): 2.458 μmol (15 min^−1); Acid output, mean ([2]; time 60 min, 10 mg/kg oral): 2.085 μmol (15 min^−1); Acid output, mean ([2]; time 75 min, 10 mg/kg oral): 2.701 μmol (15 min^−1); Acid output, mean ([2]; time 90 min, 10 mg/kg oral): 2.77 μmol (15 min^−1); Acid output, mean ([2]; time 105 min, 10 mg/kg oral): 2.648 μmol (15 min^−1); Acid output, mean ([2]; time 120 min, 10 mg/kg oral): 1.431 μmol (15 min^−1); Acid output, mean ([2]; time 135 min, 10 mg/kg oral): 1.286 μmol (15 min^−1); Acid output, mean ([2]; time 150 min, 10 mg/kg oral): 1.34 μmol (15 min^−1) |
